Molecules are shown by their SMILES.

On to `COc1ccc(-c2ccncc2)cc1Br`, for which the melting point (commonly the temperature of the solid-liquid transition) was in the range of 82 to 84 °C. The result for `OCc1cc(F)c(Cl)nc1Cl` reads 65 to 67 °C. As to `O=C1CCC(N2Cc3c(OCc4nc(CN5CCOCC5)cs4)cccc3C2=O)C(=O)N1` (configuration not stated), the melting point lay in the range of 218 to 220 °C.

`CCCCOC(=O)COc1ccc(C(=O)Nc2ccc(C)cc2Sc2ccccc2-c2nnn[nH]2)cc1` came in with a melting point of 161 to 162 °C. The figure for `COc1ccc(C(C)(CC(C)C)C(=O)NC2CCCCCCCCCCNC2=O)c(S)c1` (configuration not stated) is 131 to 136 °C; for `CCCc1c(OCCCOC2CC(CC(=O)O)Oc3ccccc32)ccc(C(C)=O)c1O` (configuration not stated) it is 102 to 105 °C.

Turning to `N#Cc1nc(Cl)c(Cl)nc1C#N`, the melting point lay in the range of 180 to 182 °C.

For `O=C(O)Cn1cc(C(=O)c2ccn3c2CSC3c2cccnc2)c2ccc(-c3ccc(F)cc3)cc21` (configuration not stated), the melting point fell in the range of 240 to 249 °C. The figure for `O=[N+]([O-])c1cc2nc(O)c(O)nc2c2nsnc12` is over 300 °C. The figure for `Cc1cc(-c2n[nH]c(Cc3ccccc3)n2)sc1C(=O)NCc1ccccc1` is 168 to 171 °C; for `CN(CCO)C(=O)Cn1nc(-c2ccccc2O)nc1-c1ccccc1O` it is 101 to 104 °C; for `COc1ccc(I)cc1C=O` it is 140 to 142 °C.

In turn, `CN1CCN(C2Cc3ccc(Cl)cc3Sc3cc(F)ccc32)CC1` (configuration not stated) came in with a melting point of 156 to 158 °C. The result for `NC(=O)NCc1cc2cc(CN3CCOCC3)cc3c(=O)c(C(=O)NCc4ccc(Cl)cc4)cn1c23` reads 250 to 252 °C; that for `CC(C)(c1ccc(Oc2ccc(N3C(=O)C=CC3=O)cc2)cc1)c1ccc(C(C)(C)c2ccc(Oc3ccc(N4C(=O)C=CC4=O)cc3)cc2)cc1`, 214 to 216 °C. The figure for `CC(Cc1ccc(O)cc1)N(CC(=O)c1ccccc1)Cc1ccc(OCc2ccccc2)c([N+](=O)[O-])c1` (configuration not stated) is 84 to 85 °C; for `CC(Sc1nc2ccccc2s1)C(N)=O` (configuration not stated) it is 144 to 145 °C; for `COc1cccc2c1C(=O)c1cccc3cc(O)cc-2c13` it is 298 to 300 °C. The result for `COCCNC(=O)c1cc(C)nc(-c2cccc3cc(Cc4cccc(C(F)(F)F)c4)sc23)c1` reads 115 to 116 °C; that for `O=Cc1ccc2c(c1I)OCO2`, 124 to 126 °C. Molecule `CCOP(=O)(CC(=O)Nc1cc2c(Nc3ccc(Cl)c(Br)c3)ncnc2cn1)OCC` displayed a melting point of 113 to 116 °C. The result for `CON=C(C(=O)O)c1csc(NC(=O)CCl)n1` reads 182 to 183 °C. The result for `Cc1[nH]c(C(=O)NCC(=O)O)c(C)c1-c1nc2ccc(C(=O)c3ccccc3)cc2[nH]1` reads 274 to 276 °C; that for `CN1CCc2cc3ccccc3n2CC1`, 59 to 60 °C. The figure for `CS(=O)(=O)c1ccc(-c2cc(C(=O)c3cccnc3)sc2N2CCOCC2)cc1` is 122 °C; for `O=C1c2ccc(=O)[nH]c2CC2CCCCC12` (configuration not stated) it is 301 to 303 °C; for `Cc1cccc(N2CCN(CCCc3ccc(C4CCC(=O)N4)cc3)CC2)c1` (configuration not stated) it is 87 to 89 °C. In turn, `Cn1cc(C2=CCC3(CC2)OCCO3)c2cc(C#N)ccc21` had a melting point of 65 to 67 °C. The result for `O=C(O)CCCOc1ccc(OCCC(c2ccccc2)(c2ccccc2)c2ccccc2)cc1` reads 138 to 139 °C; that for `NC(=O)c1ccc(-c2nccc3[nH]c(=O)ccc23)cc1`, over 300 °C; that for `Oc1ccc(-c2cc3ccccc3nc2Cl)cc1`, 164 to 166 °C.

In turn, `O=C(O)C(CBr)(CBr)CBr` showed a melting point of 83 to 86 °C. Consider `CN1CCN(C(=S)Cc2ccc(S(C)(=O)=O)cc2)CC1`, for which the melting point lay in the range of 172 to 177 °C. The figure for `O=C(Nc1c(Cl)cncc1Cl)c1ccc(SCF)c(OC2CCCC2)c1` is 111 to 113 °C. The figure for `COC1=Nc2cc(OC)c(F)cc2C(c2ccccc2Cl)=NC1C(C)=O` (configuration not stated) is 172 to 174 °C; for `NS(=O)(=O)c1nc(-c2ccc([N+](=O)[O-])cc2)c[nH]1` it is 227 to 229 °C; for `CCc1cnc2c(NC(=O)c3c(Cl)cccc3Cl)cccc2c1CC(=O)OC` it is 167 to 168 °C. For `COc1cc2cc(C(N)=O)cnc2cc1F`, the melting point was determined as 231 °C. The figure for `CC(=O)c1cn(C)cc(-c2cccc(Cl)c2)c1=O` is 175 to 177 °C; for `COC(=O)c1ccc2c(CCC=O)nn(C)c2c1` it is 80 to 83 °C.

Consider `CC(=O)CCn1[nH]c(=O)c2ccccc2c1=O`, for which the melting point is 152 to 153 °C. The result for `CC(C)(C)c1cc(C(=O)c2cccs2)cc(CN(CCO)CCO)c1O` reads 108 to 110 °C. Molecule `O=C(NCc1cccc(OCCOc2nc[nH]n2)c1)c1nc2ccc(F)c(F)c2c(=O)[nH]1` gave a melting point of 205 to 207 °C. In turn, `Nc1cc(OC(F)(F)C(F)Cl)c(OC(F)(F)C(F)Cl)cc1N` (configuration not stated) gave a melting point of 58 to 60 °C. The figure for `CCCn1nc2c(N)nc3ccccc3c2c1NCCC1CCN(C(=O)NC(C)C)CC1` is 168 to 170 °C; for `C=C(C)Sc1oc2cc(OCc3ccccc3)ccc2c(=O)c1-c1ccc(OC)cc1` it is 101 to 102 °C; for `O=C(Nc1ccc(Oc2ccnc(NCC3OCCO3)n2)c2ccccc12)c1cc(F)cc(N2CCCCC2)c1` it is 96 to 98 °C. The result for `CC(C)(C)c1ccc(N(c2ccccc2)c2ccc(-c3ccc(Nc4ccccc4)cc3)cc2)cc1` reads 126 to 127 °C; that for `COC(=O)c1cc(C(=O)NCC(=O)O)c2cc(Cc3ccc(F)cc3)cnc2c1O`, 246 to 247 °C; that for `O=C(Nc1cccc2c1C(=O)N(CCC(=O)N1CCN(c3ccncc3)CC1)C2=O)c1ccc(Cl)s1`, 167 °C. The result for `CCN(C(=O)C#Cc1ccccc1)c1ccccc1C1CCCCN1C` (configuration not stated) reads 104 to 106 °C; that for `COc1ccc(C=CC(=O)NCCc2ccc(I)c(S(N)(=O)=O)c2)c(OC)c1`, 180 °C.

In the case of `Cc1ccc(S(=O)(=O)N2[C@@H](CCc3nc(C4CC4)no3)CC[C@H]2c2ccc(F)cc2)cc1` (racemic), the melting point came to 129 °C.

Take `Cn1c(-c2ccc(Cl)cc2)cc2ncccc2c1=O`: the melting point lay in the range of 139 to 140 °C. For `COc1ccc2c(c1)C(=O)C(Cc1cccc(NS(=O)(=O)C(F)(F)F)c1)CC2` (configuration not stated), the melting point lay within 152 to 154 °C. The result for `C#CCOc1ccc(C(=O)OC)c(OC)c1` reads 88 °C. The figure for `COC(=O)CCc1ccc(NC(=O)NNC=O)cc1` is 146 to 148 °C; for `CC(=O)OC1C(N2CCCCC2)CC2C3CCC4CCC(=O)CC4(C)C3CCC21C` (configuration not stated) it is 165 to 167 °C. The result for `Fc1ccc2c(c1)C(OCC1CC1)(C(F)F)c1cc(Cl)cnc1N2` (configuration not stated) reads 169 to 170 °C; that for `COc1ccc(-c2cc(-c3ccccc3)c(-c3ccccc3)s2)cc1F`, 118 to 122 °C; that for `CCn1c(N)c(C(=O)NC)c(=O)c2ccc(-c3ccc(NS(C)(=O)=O)cc3)nc21`, over 300 °C. As to `Cc1cc(C(N)=O)ncc1C(c1c(F)ccc(F)c1F)S(=O)(=O)CC1CC(F)(F)C1` (configuration not stated), the melting point lay in the range of 205 to 207 °C. The result for `Oc1cnccc1CCCOc1cccnc1Nc1cccc(Br)c1` reads 138 to 141 °C; that for `CCC(C)(Oc1ccc(CNc2ccc(Cl)cc2)cc1)C(=O)O` (configuration not stated), 152 to 153 °C; that for `O=C(Nc1ccccc1)N1CCc2cc(S(=O)(=O)N3CCN(c4cccc(Cl)c4)CC3)ccc21`, 177 to 178 °C. The figure for `Cc1sc(CCc2ccc(C=CC=C3OC(=O)NC3=O)cc2)nc1-c1ccccc1` is 161 to 162 °C; for `Cn1ncc2c(c1=O)S(=O)CCNC2Cc1ccccc1` (configuration not stated) it is 162 to 163 °C.

The molecule `CCOC(=O)Cn1c2c(c3cc(Cl)cc(Cl)c31)CCN(C(=O)OC(C)(C)C)CC2` had a melting point of 117 to 120 °C. The figure for `COc1nc(C)nc(NC(=O)NS(=O)(=O)c2ccccc2C=CC(F)(F)F)n1` is 154 to 155 °C; for `CCOC(=O)CSc1nc(O)c(C)c(O)n1` it is 211 to 214 °C; for `CN1C(=O)C(Cc2ccccc2)(c2ccccc2OCCCCBr)c2ccccc21` (configuration not stated) it is 174 to 175 °C. The figure for `COc1ccc2[nH]c(CCCCCCCCCCCCCCO)cc2c1` is 68 to 69 °C. The figure for `O=C1CCc2ccc(O)c(c2)Oc2ccc(cc2)C=CCO1` is 148 to 151 °C.

Molecule `CCCCCCC(=O)N[C@@H](C(=O)OCc1ccccc1)[C@@H](C)O` yielded a melting point of 70 to 73 °C. `CCCn1nc(-c2ccc(OC(=O)CC(C)(C)C)cc2)c2cccc(Cl)c21` came in with a melting point of 71 to 72 °C. The figure for `CC[C@H](C)CNC(=O)[C@@H](C[C@H](O)[C@H](CC1CCCCC1)NC(=O)[C@H](Cc1cscn1)NC(=O)OC(C)(C)C)C(C)(C)O` is 190 to 193 °C; for `CCN(CC)CCCC1CCCCN1C(=O)N1c2ccccc2C(=O)Nc2cccnc21` (configuration not stated) it is 125 to 128 °C. The result for `CCCCCCCCCCOc1ccc2c(=O)c3cccc(C(=O)O)c3oc2c1CCC(=O)O` reads over 210 °C; that for `COCOc1cc(F)ccc1-c1cc(-c2cccc(NC(=O)CN3CCCCC3)c2)c(C#N)c(NC(=O)c2ccco2)n1`, 140 to 142 °C; that for `CCCCC1(CCCC)CS(=O)(=O)c2ccc(N(C)C)cc2[C@@H](c2ccc(OCc3cccc(CN(CC(=O)O)CC(=O)O)n3)cc2)[C@H]1O`, 153 to 155 °C.

As for `CCCCCCCCCCCCc1cc(C)on1`, the melting point is 35 to 38 °C. The result for `Cc1cc(C)nc(NC(=O)Cc2ccc(Br)s2)c1` reads 87 °C.

For the molecule `CN(C)CC1CCCN(c2cc3ccccc3c(=O)[nH]2)C1` (configuration not stated), the melting point lay within 141 to 143 °C. The result for `NC(=O)C1CCc2cc(C3CCCCCC3)c(Cl)cc21` (configuration not stated) reads 170 to 171 °C. The result for `CC(C)(C)OC(=O)N1CCN(C(=O)SCc2ccc(O[Si](C)(C)C(C)(C)C)cc2)CC1` reads 53 to 54 °C; that for `CCC(C)C1C(=O)NN(c2ccc(Cl)c(Cl)c2)C1=O` (configuration not stated), 118 to 120 °C. The result for `CCNC(=O)c1c([Si](C)(C)C)ccc(-c2ccccc2)c1Cl` reads 134 to 135 °C.

(Values after a melting point compilation (Tetko et al.; mined from patent text by program, amines drawn as free bases though some values may be those of a salt).)
